In PubChem BioAssay AID493130 (Broad Institute, 2011):
Inconclusive results are not listed. The source made the active and inactive calls.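 Rule for the calls: active = signal-lowering compounds whose fitted half-maximal concentration is at most ten times their highest tested dose; inconclusive = flat fit between -30 and -70%, or poor fit; inactive = flat within 30%, signal rising, or potency beyond limit.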

Each compound was assayed against POS-1 (Caenorhabditis elegans) binding to mex-3 RNA (assay: inhibitors of POS-1/mex-3 RNA binding, dose response, counter-screen for MEX-5 RNA-binding inhibitor project, biochemical, fluorescence polarization, cherry-picked samples, set 2 (AID 493130;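 note: POS-1 as maltose binding protein fusion made in E. coli with FITC RNA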)). Settings: POS-1/mex-3 RNA fluorescence polarization, 1 h.
In the case of Cc1cc(=O)n2[nH]c(=O)c(N=Nc3ccccc3)c2[nH]1, the AC50 is reported as 0.306 µM.
Compound Cc1cc(=O)oc(C)c1C(=O)Nc1ccc2ncccc2c1 has an AC50 of 8.33 µM.
For O=C1CSC(=S)N1/N=C/c1cc(Br)c(O)c(Br)c1, the AC50 was 10.2 µM.
With CN1CC=C2C(C#N)=C(N)C(C#N)(C#N)C(Cc3ccccc3)C2C1 (stereo not given) the AC50 was 6.58 µM.
For COC(=O)c1cc2c(-c3ccccc3)c(C)c3ccccn3c-2c1C(=O)OC, the AC50 was > 10 µM (inactive).
Compound CCN1CC=C2C(C#N)=C(N)C(C#N)(C#N)[C@H](c3ccoc3)[C@H]2C1 has an AC50 of 6.73 µM.
COc1ccc(NC(=O)c2cccc(-c3ccc(O)cc3)c2)cn1 was tested, and the AC50 was 3.93 µM.
For Nc1c(C(=O)c2cccs2)sc2nsc(SCCN3CCCCC3)c12, the AC50 was 6.39 µM.
Work on N=C1CCC(=N)c2c1c(O)c1ccccc1c2O yielded an AC50 of 5.58 µM.
CN1CC=C2C(C#N)=C(N)C(C#N)(C#N)[C@H](c3cccs3)[C@H]2C1 gave an AC50 of 6.12 µM.
COCCCNC(=O)c1ccc2c3c(onc13)-c1ccccc1C2=O was tested, and the AC50 was 0.186 µM.
In the case of COc1ccccc1C(=O)Oc1ccc2c(c1)O/C(=C\c1ccncc1)C2=O, the AC50 is reported as 3.41 µM.
Cc1ccc(C(=O)NNC(=O)c2ccc3ccccc3c2O)cc1 gave an AC50 of 7.78 µM.

Same assay, conditions: POS-1/mex-3 RNA fluorescence polarization, 1 h; at 10 µM (top of the series)
In the case of COC(=O)C1=C(C)OC(N)=C(C#N)C1c1cc(OC)c(OCC(N)=O)cc1Cl (stereo not given), the “activity change, negative = inhibition” value is reported as “inactive”.
For CCn1c(C)c(C(C)=O)c(N2CCN(c3ccccc3)CC2)nc1=S, the “activity change, negative = inhibition” value was “inactive”.
With Nc1nc(Cl)nc2ccc(Br)cc12 the “activity change, negative = inhibition” value was “inactive”.
With Cc1ccc(N=Nc2c(O)n(CN3CCOCC3)c3ccccc23)cc1 the “activity change, negative = inhibition” value was “inactive”.
In the case of CC(=O)c1cc(NC(=O)c2ccc([N+](=O)[O-])cc2)c(=O)oc1C, the “activity change, negative = inhibition” value is reported as “inactive”.
For COc1ccc(-c2cn[nH]c2-c2ccc(O)cc2O)cc1OC, the “activity change, negative = inhibition” value was “inactive”.
In the case of O=C(C1=NN(c2ccccc2)C2C(=O)N(c3ccccc3)C(=O)C12)c1ccccc1 (stereo not given), the “activity change, negative = inhibition” value is reported as “inactive”.
Nc1nonc1C(=O)N/N=C/c1cc(Br)ccc1O was tested, and the “activity change, negative = inhibition” value was “inactive”.
In the case of Cc1cccc(CS(=O)(=O)c2nnc([C@H](Cc3ccccc3)NC(=O)OC(C)(C)C)o2)c1, the “activity change, negative = inhibition” value is reported as “inactive”.
For COc1c(OC2OC(C(=O)O)C(O)C(O)C2O)cc(O)c2c(=O)cc(-c3ccccc3)oc12 (stereo not given), the “activity change, negative = inhibition” value was “inactive”.
For COc1ccc(/C=N/NC(=O)c2ccc(=O)[nH]n2)cc1OC, the “activity change, negative = inhibition” value was “inactive”.
With CC(=O)NNc1ncnc2ccccc12 the “activity change, negative = inhibition” value was “inactive”.
With COc1ccc(C(=O)NNC(=O)C(=O)/C=C(\O)c2ccc(C)cc2)cc1 the “activity change, negative = inhibition” value was “inactive”.
In the case of O=c1[nH]cnc2c1C(c1ccccc1)c1c(nc[nH]c1=O)O2, the “activity change, negative = inhibition” value is reported as “inactive”.
With O=C(O)c1ccccc1N=Nc1c(O)[nH]c2ccc([N+](=O)[O-])cc12 the “activity change, negative = inhibition” value was “inactive”.
For CSc1ccc(/C=C/C(=O)c2ccc(NC(C)=O)cc2)cc1, the “activity change, negative = inhibition” value was “inactive”.
In the case of C=CCc1cccc2cc(C(=O)NNC(=O)CC#N)c(=O)oc12, the “activity change, negative = inhibition” value is reported as “inactive”.
With O=C1SC(SCc2ccccc2)=N/C1=C\c1ccc(C(=O)O)cc1 the “activity change, negative = inhibition” value was “inactive”.
With CN=c1scc(-c2ccco2)n1/N=C/c1ccc(O)c(O)c1 the “activity change, negative = inhibition” value was “inactive”.
Cc1cc(/C=C2/C(=N)N3C(=NC2=O)SN=C3S(C)(=O)=O)c(C)n1-c1ccc(F)cc1 was tested, and the “activity change, negative = inhibition” value was “inactive”.
With Cc1nc2ccc(NC(=O)NC(=O)c3c(Cl)cccc3Cl)cc2o1 the “activity change, negative = inhibition” value was “inactive”.
With C#CCN1C(=O)S/C(=C\c2ccc(N3CCOCC3)cc2C)C1=O the “activity change, negative = inhibition” value was “inactive”.
N#CC(C(=O)NC1CC1)c1nc2ccccc2nc1N1CCN(C/C=C/c2ccccc2)CC1 (stereo not given) was tested, and the “activity change, negative = inhibition” value was “inactive”.
In the case of Cc1ccc(C(=O)/C=C/c2ccccc2[N+](=O)[O-])cc1, the “activity change, negative = inhibition” value is reported as “inactive”.
With C#CCOCCOCCOCCNc1nc(N2CCN(C(=O)[C@H](CCCCN)n3cc(C(N)CO)nn3)CC2)nc(N2CCN(C(=O)[C@H](CCC(=O)O)n3cc(C(N)CC(C)C)nn3)CC2)n1 (stereo not given in full) the “activity change, negative = inhibition” value was “inactive”.
With Cc1cc(C)c2cc3c(N)c(C(=O)N4CCc5ccccc5C4)sc3nc2c1 the “activity change, negative = inhibition” value was “inactive”.
In the case of O=C(Nc1ccc(S(=O)(=O)Nc2nccs2)cc1)c1ccc(N2C(=O)c3ccccc3C2=O)cc1, the “activity change, negative = inhibition” value is reported as “inactive”.
In the case of O=C(O)c1ccc(N2Cc3ccccc3C2)cc1O, the “activity change, negative = inhibition” value is reported as “inactive”.
For Cc1ccc(-c2nc(C=Nc3cccc(C)c3)c(O)o2)cc1, the “activity change, negative = inhibition” value was “inactive”.
In the case of N=c1c(S(=O)(=O)c2ccc(Cl)cc2)cc2c(=O)n3ccccc3nc2n1CC1CCCO1 (stereo not given), the “activity change, negative = inhibition” value is reported as “inactive”.
In the case of COc1ccc2cc3c(N)c(C(=O)NCc4ccco4)sc3nc2c1, the “activity change, negative = inhibition” value is reported as “inactive”.
In the case of O=C(NNC(=O)c1ccc([N+](=O)[O-])o1)c1ccccc1, the “activity change, negative = inhibition” value is reported as “inactive”.
With CCOC(=O)NC(=O)/C(C#N)=C\Nc1sccc1C(=O)OC the “activity change, negative = inhibition” value was “inactive”.
For N#C/C(C(N)=O)=C1/CCc2ccccc2N1, the “activity change, negative = inhibition” value was “inactive”.
CC1(C)CC(=O)C2=C(C1)OC(N)=C(C#N)C2c1ccccc1[N+](=O)[O-] (stereo not given) was tested, and the “activity change, negative = inhibition” value was “inactive”.
CC(=O)CSc1ncnc2nc[nH]c12 was tested, and the “activity change, negative = inhibition” value was “inactive”.
In the case of CSCCCN1CCC(n2nccc2NC(=O)CCCc2ccccc2)CC1, the “activity change, negative = inhibition” value is reported as “inactive”.
Cn1nc(C(=O)NNC(=O)c2ccc(Cl)cc2)ccc1=O was tested, and the “activity change, negative = inhibition” value was “inactive”.
In the case of N#C/C(=N\Nc1cccc(C(F)(F)F)c1)C(=O)c1ccsc1, the “activity change, negative = inhibition” value is reported as “inactive”.
With O=C(O)c1ccc2cccnc2n1 the “activity change, negative = inhibition” value was “inactive”.
With NC(=O)C(=O)N/N=C/c1c2ccccc2cc2ccccc12 the “activity change, negative = inhibition” value was “inactive”.
With Cc1c(NC(=O)c2ccc(=O)oc2)c(=O)n(-c2ccccc2)n1C the “activity change, negative = inhibition” value was “inactive”.
For Cc1c(N=Cc2cc3c(cc2[N+](=O)[O-])OCO3)cccc1[N+](=O)[O-], the “activity change, negative = inhibition” value was “inactive”.
With O=C(NC1CCSc2ccccc21)c1ccccc1Br (stereo not given) the “activity change, negative = inhibition” value was “inactive”.
In the case of CCN(Cc1ccccc1)c1ccc(/C=C(\C#N)c2ccccn2)cc1, the “activity change, negative = inhibition” value is reported as “inactive”.
In the case of CC1(OC(=O)c2ccc(Cl)nc2)C(=O)C=C2C=C(c3ccc(C#N)cc3)OC=C2C1=O (stereo not given), the “activity change, negative = inhibition” value is reported as “inactive”.
In the case of O=C(O)c1cccc(-n2cccc2/C=C/[N+](=O)[O-])c1, the “activity change, negative = inhibition” value is reported as “inactive”.
CC(C)C(=O)OCC(=O)Nc1ccc2c(c1)CCC2 was tested, and the “activity change, negative = inhibition” value was “inactive”.
COc1ccc(CC(=O)NNC(=O)c2cnccn2)cc1 was tested, and the “activity change, negative = inhibition” value was “inactive”.
With CCN=c1scc(-c2ccco2)n1/N=C/c1ccc(O)cc1 the “activity change, negative = inhibition” value was “inactive”.
For Cc1ccc2cc(C#N)c(N3CCCN(C(=O)C4CCCO4)CC3)nc2c1C (stereo not given), the “activity change, negative = inhibition” value was “inactive”.
In the case of CN1C(=O)/C(=C/c2ccco2)SC1=Nc1cccc(C(=O)O)c1, the “activity change, negative = inhibition” value is reported as “inactive”.
With Oc1ccc(C2C=C(c3ccc(F)cc3)Nc3ncnn32)cc1 (stereo not given) the “activity change, negative = inhibition” value was “inactive”.
N=C(N)N=Nc1c(O)[nH]c2ccc(Br)cc12 was tested, and the “activity change, negative = inhibition” value was “inactive”.
COc1ccc(N(CCC#N)C(=O)/C(C#N)=C\c2cccs2)cc1 was tested, and the “activity change, negative = inhibition” value was “inactive”.
With COc1ccccc1NCc1cc(=O)oc2c(C)c(O)ccc12 the “activity change, negative = inhibition” value was “inactive”.
With CN(C)C(=O)Oc1ccc2c(c1)O/C(=C\c1ccccc1)C2=O the “activity change, negative = inhibition” value was “inactive”.
CC[n+]1c(/C=C/C=C/c2ccc(N(C)C)cc2)sc2ccccc21 was tested, and the “activity change, negative = inhibition” value was “inactive”.
Cc1c(C(=O)O)c(C(=O)O)nc2ccc(N3CCOCC3)cc12 was tested, and the “activity change, negative = inhibition” value was “inactive”.
In the case of O=C1c2cccc3c(Cl)ccc(c23)C(=O)N1O, the “activity change, negative = inhibition” value is reported as “inactive”.
Cc1nnc(N2C(=O)C(O)=C(C(=O)c3ccco3)C2c2ccc(C(C)C)cc2)s1 (stereo not given) was tested, and the “activity change, negative = inhibition” value was “inactive”.
For O=c1[nH]nc(CNc2ccc(Cl)cc2Cl)c2ccccc12, the “activity change, negative = inhibition” value was “inactive”.
In the case of COc1ccc(N(CCC#N)C(=O)/C(C#N)=C/c2cccs2)cc1, the “activity change, negative = inhibition” value is reported as “inactive”.
CNC(=O)c1c(NC(=O)c2ccc(S(=O)(=O)N(C)c3ccccc3)cc2)sc2c1CCN(C(C)C)C2 was tested, and the “activity change, negative = inhibition” value was “inactive”.
With CCS(=O)(=O)C1=NN2C(=N)/C(=C\c3ccc(SCc4ccco4)o3)C(=O)N=C2S1 the “activity change, negative = inhibition” value was “inactive”.
For COc1ccccc1/C=C1\SC(=S)N(CCC(=O)Nc2cc(C)on2)C1=O, the “activity change, negative = inhibition” value was “inactive”.
O=c1nc(-c2ccccc2)c2cc(Br)ccc2[nH]1 was tested, and the “activity change, negative = inhibition” value was “inactive”.
In the case of CC1(C)CC(=O)C2=C(C1)Nc1cc(Cl)ccc1S2, the “activity change, negative = inhibition” value is reported as “inactive”.
With O=C(O)c1cc(-c2ccco2)nc2cc3ccccc3cc12 the “activity change, negative = inhibition” value was “inactive”.
With CN1CCCc2cc(C=O)ccc21 the “activity change, negative = inhibition” value was “inactive”.
For Cc1ccc(-c2cc(C(=O)O)c3cc(Br)ccc3n2)o1, the “activity change, negative = inhibition” value was “inactive”.
CCC(COC(C)=O)Nc1nc2c([nH]1)c(=O)n(C)c(=O)n2C (stereo not given) was tested, and the “activity change, negative = inhibition” value was “inactive”.
